Assay results: patent US8143259B2, “Cold menthol receptor antagonists” (Janssen Pharmaceutica, NV, priority 2008, dated 2012)
“And” between values parts separate entries of the source, which are not always exact repeats. Equal entries are not always repeated.

Experiments:
[1] = system: icilin-induced “wet-dog” shakes; test: Reversal of Icilin-Induced Behaviors in Rats; type: in vivo; details: percent inhibition (reversal) of wet-dog shakes, rat, 30 mg/kg P.O., 20′ post-icilin
Protocol: (§1) Similar shaking or jumping behavior was also evident in mice, rabbits, cats, dogs and monkeys. In humans, icilin produced a sensation of coolness on contact with mucous membranes, cold prickling when 0.1 mg was dropped on the tongue and coldness in the mouth, pharynx and chest lasting 30-60 minutes when 5-10 mg was ingested orally (Wei E T, Seid D A, J Pharm Pharmacol. 1983, 35, 110). The inhibition or reversal of icilin-induced shaking behaviors in rodents provides evidence for the utility of TRPM8 antagonists of the formula (I) in treating or preventing a disease, syndrome, disorder or condition in a subject in which the disease, syndrome, disorder or condition is affected by the modulation of TRPM8 receptors.
Male Sprague Dawley rats (225-450 g, Charles River Labs, n=4-6/treatment) were used to evaluate the ability of selected compounds of the formula (I) to reverse icilin-induced “wet-dog” shakes. Icilin was administered in PEG-400 or 10% solutol/H2O, at 1.0 or 3.0 mg/kg, i.p. and spontaneous “wet-dog” shakes (WDS) were counted 10-20 minutes post-icilin. […] Results are presented as a percent inhibition of shakes, which was calculated as [1−(test compound WDS count/vehicle WDS count)]×100.

canine TRPM8 = target: T1, canine TRPM8 (Canis lupus familiaris, UniProt Q1A7N1); test: In Vitro Canine TRPM8 Functional Assay (Ca2+ fluorescence, icilin activation); type: cell-based; details: for inhibition at 0.5 µM: HEK293, 0.5 μM compound; for IC50: HEK293 cells stably expressing canine TRPM8, icilin activation, Ca2+ fluorescence; for % Inh @ 0.5 μM: 0.5 μM compound; for inhibition at 0.2 µM: HEK293, 0.2 μM compound
T1 construct: expressed in transfected cells
Method in brief: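 HEK293 cells stably expressing canine TRPM8, loaded with Calcium 3 dye; compounds added 5 min before icilin at a concentration giving ~80% maximal response. Peak icilin-evoked Ca2+ fluorescence, basal-subtracted and normalised to maximal response, fitted by sigmoidal nonlinear regression; quadruplicate wells.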

[2] = system: icilin-induced “wet-dog” shakes; test: Inhibition of Icilin-Induced “Wet-Dog” Shakes in Rats; type: in vivo; details: percent inhibition of wet-dog shakes; rat; 30 mg/kg p.o., 10% solutol, 2 h pre-icilin
Protocol: as §1
Male Sprague Dawley rats ([…], Charles River Labs, n=6-9/treatment) were used to evaluate the ability of selected compounds of the formula (I) to block icilin-induced “wet-dog” shakes (WDS). […] Icilin was administered in PEG-400 or 10% solutol/H2O, at 1.0 or 3.0 mg/kg, i.p. and spontaneous “wet-dog” shakes were counted 10-20 minutes post-icilin. Results are presented as a percent inhibition of shakes, which was calculated as [1−(test compound WDS count/vehicle WDS count)]×100.

T1 sequence (Q1A7N1 1-1104): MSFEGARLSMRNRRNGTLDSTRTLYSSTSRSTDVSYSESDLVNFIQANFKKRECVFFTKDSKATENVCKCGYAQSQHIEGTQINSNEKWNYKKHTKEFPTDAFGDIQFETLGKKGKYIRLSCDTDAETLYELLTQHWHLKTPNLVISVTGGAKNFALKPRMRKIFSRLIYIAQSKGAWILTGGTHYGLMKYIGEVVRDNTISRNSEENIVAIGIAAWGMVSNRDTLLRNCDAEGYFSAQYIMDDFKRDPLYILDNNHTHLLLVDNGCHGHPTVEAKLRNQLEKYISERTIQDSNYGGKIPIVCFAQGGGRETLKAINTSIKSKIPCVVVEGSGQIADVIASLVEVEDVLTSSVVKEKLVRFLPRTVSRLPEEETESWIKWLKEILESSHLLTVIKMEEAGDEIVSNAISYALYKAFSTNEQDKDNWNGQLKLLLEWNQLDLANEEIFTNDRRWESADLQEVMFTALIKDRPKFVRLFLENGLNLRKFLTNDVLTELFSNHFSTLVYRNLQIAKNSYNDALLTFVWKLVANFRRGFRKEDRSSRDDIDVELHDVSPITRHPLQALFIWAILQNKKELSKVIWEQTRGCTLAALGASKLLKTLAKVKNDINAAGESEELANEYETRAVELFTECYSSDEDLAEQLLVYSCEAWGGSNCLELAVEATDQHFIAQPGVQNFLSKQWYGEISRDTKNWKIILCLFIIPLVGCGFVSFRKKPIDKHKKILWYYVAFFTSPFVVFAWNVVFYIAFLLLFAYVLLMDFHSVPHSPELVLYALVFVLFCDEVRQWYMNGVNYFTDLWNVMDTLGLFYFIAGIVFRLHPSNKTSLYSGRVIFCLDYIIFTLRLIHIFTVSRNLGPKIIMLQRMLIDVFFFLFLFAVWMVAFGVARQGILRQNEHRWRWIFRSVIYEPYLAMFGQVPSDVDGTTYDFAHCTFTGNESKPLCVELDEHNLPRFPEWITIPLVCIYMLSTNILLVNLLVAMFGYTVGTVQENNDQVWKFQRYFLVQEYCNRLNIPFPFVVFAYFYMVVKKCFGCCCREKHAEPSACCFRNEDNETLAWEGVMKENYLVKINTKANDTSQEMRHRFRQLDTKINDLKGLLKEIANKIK

Compound | % Inh ([1]; 30 mg/kg) | inhibition at 0.5 µM (canine TRPM8; canine TRPM8 HEK293, icilin) | IC50 (canine TRPM8) | % Inh @ 0.5 μM (canine TRPM8; canine TRPM8 HEK293, icilin) | inhibition at 0.2 µM (canine TRPM8; canine TRPM8 HEK293, icilin) | % Inh [2] | % Inh @ 0.2 μM (canine TRPM8; 0.2 μM compound, canine TRPM8 HEK293, icilin, 0.2 µM) | % Inh [1]
O=C(C(Nc1ccccc1F)c1ccc(C(F)(F)F)cc1)N1CCCC1c1ccccc1 (single isomer, unassigned) [Cpd 128] | 56% ± 19% | 100% | 4.6 nM |  |  |  |  | 
O=C(C(Nc1ccccc1F)c1ccc(C(F)(F)F)cc1)N1CCCC1c1ccccc1 (single isomer, unassigned) [Cpd 129] | 50% ± 21% |  | 43 nM | 101% |  |  |  | 
O=C(C(Nc1ccccc1F)c1ccc(C(F)(F)F)cc1)N1CCCC1c1ccccc1F (single isomer, unassigned) [Cpd 149] | 61% ± 15% | 101% | 45 nM and 74 nM |  | 83% |  |  | 
O=C(C(Nc1ccccc1F)c1ccc(C(F)(F)F)cc1)N1CCCC1c1ccccc1F (single isomer, unassigned) [Cpd 151] | 99% ± 1% |  | 7.2 nM and 5 nM | 100.72% |  | 100% | 103% | 
O=C(C(Nc1ccccc1F)c1ccc(C(F)(F)F)cc1)N1CCCC1c1ccccc1Cl (single isomer, unassigned) [Cpd 155] |  | 99% | 17 nM |  |  |  |  | 79% ± 13%
O=C(C(Nc1ccccc1F)c1ccc(Cl)cc1)N1CCCC1c1ccccc1F (single isomer, unassigned) [Cpd 158] |  |  | 5 nM | 98% |  |  |  | 86% ± 7%
O=C(C(Nc1ccccc1F)c1ccc(C(F)(F)F)cc1)N1CCCC1c1cccc(F)c1 (stereo not shown) [Cpd 134] |  |  | 14 nM and 8.7 nM | 98% |  |  |  | 75% ± 11%
O=C(C(Nc1ccccc1F)c1ccc(C(F)(F)F)cc1)N1CCC[C@H]1c1ccccc1F (stereo partly drawn) [Cpd 150, 2-(2-Fluoro-phenylamino)-1-[(2S)-2-(2-fluoro-phenyl)-pyrrolidin-1-yl]-2-(4-trifluoromethyl-phenyl)-ethanone] |  | 100% | 12 nM and 4 nM |  | 89% |  |  | 63% ± 15%
